Laboratory results published in patent US20160212993A1, “ADJUVANT COMPOSITIONS” (SYNGENTA LIMITED, priority 2012, published 2016).

Key:
Assay type in all cases: in vivo
[1] = system: Mycosphaerella graminicola (Septoria tritici); assay: Mycosphaerella graminicola (Septoria tritici) / wheat / preventative, SEPTTRZ/ff-pr; conditions: Table 3, adjuvant alone, 0.20%, average of three replicates
Description: (§1) In general, active ingredient is formulated (SC, SL) and just before spraying the formulations are mixed with water and ultrasonically agitated in order to achieve homogeneous distribution. Spray solutions are made up in water. Adjuvants are added as tank mix to the spray solution just before application. Foliar application is at 200 L/ha in an application device spraying with a single nozzle (type Lechler) 60 cm above the plants. Preventative tests are performed as 1 or 2 day preventative applications, i.e. plants are treated with the compounds 1 or 2 days prior to artificial inoculation with fungal spores, whereas for curative tests the inoculation is carried out prior to application. A single evaluation of disease level is made 5 to 48 days after inoculation, depending on the pathosystem. Disease control relative to the untreated check plants is then calculated. In the following examples, all treatments were sprayed at […] spray volume in 10% isopropanol solution to normalise foliar retention: Azoxystrobin;—Quadris SC250, Isopyrazam;—SC250, Cyproconazole: —Alto SL100, Chlorothalonil; Bravo SC720
Mycosphaerella graminicola (Septoria tritici)/Wheat/Preventative (Septoria tritici Leaf Spot on Wheat)->SEPTTRZ/ff-pr-S:
2-week old wheat plants cv. Riband are sprayed in a spray chamber with the formulated test compound diluted in water. The test plants are inoculated by spraying a spore suspension on them one day after application. After an incubation period of 1 day at 22° C./21° C. (day/night) and 95% rh, the inoculated test plants are kept at 22° C./21° C. (day/night) and 70% rh in a greenhouse. Percentage leaf area covered by disease was assessed and efficacy was calculated compare to untreated controls when an appropriate level of disease appears on untreated check plants (16-19 days after application).

[2] = system: Puccinia recondita f. Sp. Tritici; assay: Puccinia recondita f. sp. tritici / wheat / curative (brown rust on wheat), PUCCTRZ/ff-cu; parameters: key: % disease control relative to untreated check plants; conditions: 0.20%, average of three replicates
Description: as §1
Puccinia recondita f. Sp. Tritici/Wheat/Curative (Brown Rust on Wheat)->PUCCTRZ/ff-cu-S:
2-week old wheat plants cv. Arina are inoculated by spraying them with a spore suspension two days before application. After an incubation period of 1 day at 20° C. and 95% rh followed by 1 day at 20° C. and 60% rh in a greenhouse, the inoculated test plants are sprayed in a spray chamber with the formulated test compound diluted in water. After additional incubation at 20° C./18° C. (day/night) and 60% rh in a greenhouse, the percentage leaf area covered by disease is assessed when an appropriate level of disease appears on untreated check plants (9-12 days after application).

[3] = system: Alternaria solani; assay: Alternaria solani / tomato / preventative, ALTELYP/ff-pr; conditions: Table 4, adjuvant alone, 0.20%, average of three replicates
Description: as §1
Alternaria solani/Tomato/Preventative (Alternaria on Tomato)->ALTELYP/ff-pr-S:
4-week old tomato plants cv. Roter Gnom are sprayed in a spray chamber with the formulated test compound diluted in water. The test plants are inoculated by spraying them with a spore suspension two days after application. The inoculated test plants are incubated at 22/18° C. (day/night) and 95% rh in a greenhouse and the percentage leaf area covered by disease is assessed when an appropriate level of disease appears on untreated check plants (5-7 days after application).

[4] = system: Puccinia recondita f. Sp. Tritici; assay: Puccinia recondita f. sp. tritici / wheat / preventative (brown rust on wheat), PUCCTRZ/ff-pr; parameters: key: % disease control relative to untreated check; conditions: 0.20%, average of three replicates
Description: as §1
Puccinia recondita f. Sp. Tritici/Wheat/Preventative (Brown Rust on Wheat)->PUCCTRZ/ff-pr-S:
2-week old wheat plants cv. Arina are sprayed in a spray chamber with the formulated test compound diluted in water. The test plants are inoculated by spraying them with a spore suspension one day after application. After an incubation period of 1 day at 20° C. and 95% rh, the inoculated test plants are kept at 20° C./18° C. (day/night) and 60% rh in a greenhouse. The percentage leaf area covered by disease is assessed when an appropriate level of disease appears on untreated check plants (12-14 days after application).

Row | Compound | SEPTTRZ/ff-pr, visual assessment of control [1] | PUCCTRZ/ff-cu, visual assessment of control ([2]; Table 1, adjuvant alone) | PUCCTRZ/ff-cu, visual assessment of control ([2]; Table 2, adjuvant alone) | ALTELYP/ff-pr, visual assessment of control [3] | PUCCTRZ/ff-pr, visual assessment of control ([4]; Table 1, adjuvant alone) | PUCCTRZ/ff-pr, visual assessment of control ([4]; Table 2, adjuvant alone) | PUCCTRZ/ff-pr, visual assessment of control ([4]; Table 3, adjuvant alone) | PUCCTRZ/ff-pr, visual assessment of control ([4]; Table 4, adjuvant alone)
1 | Nopol-5PO-7EO [Nopol-5PO-7EO (Rhodoclean EFC)] | 0 | 0 | 0 | 6 | 0 | 0 | 0 | 0
2 | Nopol-5PO-9EO [Nopol-5PO-9EO (Rhodoclean MSC)] | 15 | 0 | 0 | 0 | 0 | 0 | 0 | 0
3 | CCCCCCCC/C=C\CCCCCCCC(=O)OC [Methyl oleate, reference compound] | 0 | 0 | 0 | 0 | 0 | 0 | 0 | 0
4 | Nopol-5PO-25EO [Nopol-5PO-25EO (Rhodoclean 525)] | 7 | 0 | 0 | 2 | 0 | 0 | 0 | 0
